These results are taken from ChEMBL document CHEMBL1136434, “5-aryl-pyrazolo[3,4-b]pyridazines: potent inhibitors of glycogen synthase kinase-3 (GSK-3)” (Bioorg Med Chem Lett, 2003).

SMILES strings stand for the structures.

The test addresses Cyclin-dependent kinase 2 (Homo sapiens) (UniProt P24941).
With `CN(C)CCCC(=O)Nc1n[nH]c2nnc(-c3ccccc3)cc12`, the cKi is 1700 nM.

`O=C(Nc1n[nH]c2nnc(-c3cccnc3)cc12)C1CC1` registered a cKi of 5 nM.

In turn, `CCN1CCC(CC(=O)Nc2n[nH]c3nnc(-c4cccc(F)c4F)cc23)CC1` had a cKi of 540 nM.

Turning to `CCN1CCC(C(=O)Nc2n[nH]c3nnc(-c4cccc(F)c4F)cc23)CC1`, the cKi stood at 450 nM.

The molecule `O=C(Nc1n[nH]c2nnc(-c3cccc(F)c3F)cc12)C1CCCC1` showed a cKi of 5 nM.
